Ends that are not written are not given here.
Tests used:
B. cereus = assay type: cell-based; details: pH 7.2
Procedure: (§1) The experiments described above characterizing the activity of granulysin peptides G1-G18 relied on counting bacterial colonies on plates. This assay is quite labor intensive and would not allow evaluation of many different compounds on a number of different microbes. Therefore, we optimized an assay in which the entire procedure could be completed in a single microtiter well. Briefly, peptides are diluted in 10 mM phosphate buffer, pH 7.2 supplemented with 0.03% LB (J. Sambrook, D. W. Russell, Molecular Cloning: A Laboratory Manual (Cold Spring Harbor Laboratory Press, New York, ed. 3, 2001) pg. A2.2, Retrieved from http://openwetware.org/wiki/LB) and 25 μl is added to microtiter wells. Bacteria (25 μl) are added (˜5×10^6 colony forming units/ml) in the same buffer. After a 3-hour incubation at 37° C., 150 μl of LB is added and the plates are incubated overnight. The OD at 600 nm is read on an ELISA plate reader. The minimum inhibitory concentration (MIC) is the lowest concentration allowing no bacterial growth. The IC50 is the concentration of peptide that results in 50% growth compared to the medium.
(§2) We now describe additional peptides and their activity. The peptides have been designed, synthesized, and have been tested for lysis of E. coli and S. typhimurium (gram negative bacteria), B. cereus (gram positive bacterium). Results are shown in Table 2 along with the amino acid sequence of the peptide. Changes from the naturally occurring sequence are underlined. In general, the desired result is lysis of bacteria at low concentration (<1 μM).
(§3) In Table 2, Columns 2-7 are the MIC and IC50 (concentration required for 50% inhibition of growth) for each organism (E. coli, Salmonella, and B. cereus). The MIC (minimum inhibitory concentration) was determined as described above, in a multiwell plate assay. […] L-isomer amino acids are designated by capital letters while D-isomer amino acids are designated by lower case letters.

E. coli DH5a = assay type: cell-based; details: DH5a, pH 7.2
Procedure: as §1, §2, §3

Salmonella = assay type: cell-based, S. typhimurium; details: pH 7.2
Procedure: as §1, §2, §3

Sequence | B. cereus MIC (B. cereus) [µM] | IC50 (B. cereus) [nM] | E. coli DH5a MIC (E. coli DH5a) [µM] | IC50 (E. coli DH5a) [nM] | IC50 (Salmonella) [nM] | Salmonella MIC (Salmonella) [µM]
KKVSKKFMKK [Peptide G11.8, KKVSKKFMKK] | >10 | > 10000 | >10 | > 10000 | > 10000 | >10
KKVSKKFMKKGSKKVSKKFMKKGSKKVSKKFMKK [Peptide G11.25] | 0.15 | 100 | 0.15 | 100 | 100 | 0.15
KKVSKKFMKKYQSKVIQGLV [Peptide G12.9] | 5.6 | 3510 | 1.35 | 490 | 850 | 1.4
QKSVSKAATKVSKTGKSKW [Peptide G13.9, QKSVSKAATKVSKTGKSKW] | >10 | 7700 | 1.45 | 890 | > 10000 | >10
QRAVANAATRVARTGRARWRDVARRFMRR [Peptide G8.6] | 1.5 | 890 | 0.7 | 450 | 430 | 0.7
QRAVARAATRVARTGRARW [Peptide G13.6, QRAVARAATRVARTGRARW] | >10 | 7700 | 2.8 | 1650 | 7480 | >10
QRAVARAATRVARTGRARWRDVARNFMRR [Peptide G8.5] | 1.4 | 880 | 1.4 | 880 | 420 | 0.7
QRAVARAATRVARTGRARWRDVARRFMRR [Peptide G8.7] | 0.7 | 450 | 1.4 | 850 | 420 | 0.7
QRAVARAATRVARTGRARWRRVARRFMRR [Peptide G8.10] | 0.75 | 450 | 0.63 | 450 | 210 | 0.35
QRRSSRFMRRYQRVVPRGLV [Peptide G12.24] | 0.8 | 420 | 0.8 | 420 | 700 | 1.4
QRSVSNAATRVCRT [Peptide G10, QRSVSNAATRVCRT, reference compound] | >10 | > 10000 | >10 | > 10000 | > 10000 | >10
QRSVSNAATRVSRTGRSRWRDVSRRFMRR [Peptide G8.3] | 1.25 | 700 | 0.7 | 550 | 450 | 0.67
QRSVSNPPTRVSRPPRSRWRDVSRPPMRR [Peptide G8.16] | >10 | 7300 | 0.7 | 400 | > 10000 | >10
QRSVSRAATRVCRTGRSNW [Peptide G13.10, QRSVSRAATRVCRTGRSNW] | 5.6 | 3500 | 0.71 | 250 | > 10000 | >10
QRSVSRAATRVSRTGRSNWRDVGRRFMRR [Peptide G8.15] | 0.7 | 450 | 0.8 | 450 | 410 | 0.7
QRSVSRAATRVSRTGRSRW [Peptide G13.2, QRSVSRAATRVSRTGRSRW] | 5.6 | 3400 | 1.37 | 850 | 7300 | >10
QRSVSRAATRVSRTGRSRWRDVSRNFMRR [Peptide G8.2] | 1.39 | 510 | 1.4 | 580 | 550 | 1.4
QRSVSRAATRVSRTGRSRWRDVSRRFMRR [Peptide G8.4] | 0.7 | 450 | 0.7 | 450 | 210 | 0.35

Sequence | B. cereus MIC (B. cereus) [µM] | IC50 (B. cereus) [nM] | E. coli DH5a MIC (E. coli DH5a) [µM] | IC50 (E. coli DH5a) [nM] | IC50 (Salmonella) [nM] | Salmonella MIC (Salmonella) [µM]
QRSVSRAPTRVSRTGRSRW [Peptide G13.8, QRSVSRAPTRVSRTGRSRW] | >10 | 7700 | 5.7 | 3300 | > 10000 | >10
QRSVSRPPTRVSRPPRSRW [Peptide G13.13, QRSVSRPPTRVSRPPRSRW] | >10 | > 10000 | 5.1 | 380 | 1400 | >10
QRSVSRPPTRVSRTGRARW [Peptide G13.12, QRSVSRPPTRVSRTGRARW] | >10 | > 10000 | 5.65 | 1750 | > 10000 | >10
QRSVSRPPTRVSRTGRSRW [Peptide G13.11, QRSVSRPPTRVSRTGRSRW] | >10 | > 10000 | 5.75 | 2720 | > 10000 | >10
RDVARRFMRRQSRVISRLV [Peptide G12.15, RDVARRFMRRQSRVISRLV] | 2.8 | 1750 | 1.4 | 890 | 420 | 0.69
RDVCRNFMRR [Peptide G11, RDVCRNFMRR, reference compound] | >10 | > 10000 | >10 | > 10000 | > 10000 | >10
RDVSRRFMRRGRDVSRRFMRR [Peptide G11.38] | 1.4 | 890 | 0.7 | 420 | 820 | 1.35
RDVSRRFMRRQSRVIQGLV [Peptide G12.3, RDVSRRFMRRQSRVIQGLV] | >10 | 7700 | 5.7 | 3510 | 3500 | 5.5
RDVSRRFMRRRDVSRRFMRR [Peptide G11.39] | 0.7 | 450 | 0.7 | 220 | 1700 | 2.75
RRDSRRFMRR [Peptide G11.11, RRDSRRFMRR] | >10 | > 10000 | >10 | 7450 | > 10000 | >10
RRLLRRLLRR [Peptide G11.20, RRLLRRLLRR] | >10 | > 10000 | >10 | 7700 | 7690 | >10
RRLLRRLLRRGSRRLLRRLLRR [Peptide G11.23] | 0.7 | 410 | 0.7 | 450 | 450 | 0.71
RRPSRRFPRR [Peptide G11.37, RRPSRRFPRR] | >10 | > 10000 | 2.4 | 450 | 1680 | 2.9
RRVSRRFMRR [Peptide G11.3, RRVSRRFMRR] | >10 | 7700 | 2.85 | 1760 | > 10000 | >10
RRVSRRFMRR [Peptide G11.44, RRVSRRFMRR] | >10 | 7700 | 0.38 | 210 | 3150 | 5.75
RRVSRRFMRRGSRRVSRRFMRR [Peptide G11.7] | 0.35 | 210 | 0.35 | 210 | 210 | 0.35
RRVSRRFMRRGSRRVSRRFMRRGSRRVSRRFMRR [Peptide G11.10] | 0.35 | 210 | 0.35 | 210 | 210 | 0.35
RRVSRRFMRRSGSGSGSGQQMVQQSGQQFS [Peptide G11.40] | >10 | > 10000 | >10 | 3280 | > 10000 | >10
